Experimental data reported in patent EP0326134A1, “4-Amino-2,3-disubstituted-6,7-dihydro-5H-1-pyridine derivatives, process for their preparation and medicaments containing them” (NAUCHNO-ISSLEDOVATELSKY INSTITUT TEKHNOLOGII I BEZOPASNOSTI …, priority 1988, dated 1989).
Read-outs that look alike come from different tables or passages of the source.

Key:
[1] = Acute toxicity, single intraperitoneal injection, probit analysis (LD50); format: in vivo, Mäusen; conditions: mice, i.p.
From the text: Ihre akute Toxizität wurde an Mäusen (einmalige intraperitoneale Injektion) nach der Methode der Probit-Analyse nach Zichtfield, Wilcoxon, t949 untersucht. In Tabelle 2 sind die Parameter der akuten Toxizität (LDso) angegeben, die eine mäßige Toxizität der erfindungsgemäßen Verbindungen belegen.

[2] = Side effects and CNS/behaviour: tremor (TD50), sedative and m-cholinomimetic effects; format: in vivo
From the text: Von Interesse ist der Einfluß der erfindungsgemäßen Verbindungen auf das ZNS und das Verhalten der Tiere.

[3] = test system: durch Skopolamin hervorgerufene Amnesie; assay: Dark avoidance assay (passive avoidance), scopolamine-induced amnesia; format: in vivo, Mäusen; conditions: for Einfluß auf das Gedächtnis: Zahl der Tiere in %, bei denen die Skopolaminwirkung aufgehoben wurde: mice, compound s.c. 5 min before learning, Skopolamin i.p. 30 min before
Protocol: Die Mäuse wurden dabei in den hellen Abschnitt der Kammer gegeben, wonach die Latenzzeit für den Übertritt in die dunkle Kammer, in der die Tiere einem Stromschlag von 0,5 mA ausgesetzt waren, registriert wurde. Danach erhöhte sich die Latenzzeit für den Übertritt in den dunklen Abschnitt und verringerte sich die Aufenthaltsdauer. 30 Minuten vor dem Versuch wurden den Mäusen i.p. […] Gedächtnisstörungen hervorrufendes Skopolamin als Cholinblocker injiziert. Die erfindungsgemäßen Verbindungen wurden s.c. 5 Minuten vor dem Lernvorgang injiziert. Das Skopolamin verkürzt die Latenzzeit für den Übertritt in die dunkle Kammer, die erfindungsgemäßen Verbindungen stellen jedoch die Latenzzeitwerte wie bei der Kontrollgruppe wieder her oder bedingen ein geringfügiges Überschreiten dieser Werte (siehe Tabelle 2). Gleichzeitig wird die Aufenthaltsdauer der Tiere im dunklen Abschnitt der Kammer auf 36 bis 45 Hundertstel des Ausgangswerts verringert.

[4] = test system: Nerven-Muskel-Präparat von Mäusen (n.peroneus-m.extensor digitorum longus); assay: Neuromuscular transmission in isolated nerve-muscle preparation (EPP, minEPP); conditions: for Stimulierung der Nerven-Muskelübertragung, in % der Amplitude: EPP: EPP = Endplattenpotential
From the text: Der Einfluß der Stoffe auf die Nerven-Muskei-Übertragung wurde am isolierten Nerven-Muskel-Präparat von Mäusen (n.peroneus-m.extensor digitorum longus) (s. Bhattacharyya B. et al. "Neuromuscular blocking action of two hemicholinium-3 analogs" Europ. J. Pharmac. 146, 155-165 /1988/) untersucht, das von Lilly-Lösung perfundiert wurde, durch die man ein Gemisch von 02 und C02 leitete. […] Das Endplattenpotential (EPP) und das Endplattenminiaturpotential (minEPP) wurden mit Hilfe eines Magnetografen aufgezeichnet und danach mit dem Computer ausgewertet. Ermittelt wurden die Frequenz (f), die Amplitude (A) und die Dauer (t) der minEPP und der EPP (s. Tabelle 2).

[5] = test system: isolierten Präparaten des rechten Vorhofs von Kaninchen; assay: Antiarrhythmic effect on isolated right atrium preparations (microelectrodes: AP duration, refractory period R, e/R); conditions: isolated right atrium of rabbit; for Antiarrhythmische Wirkung: Verlängerung d. Refraktärzeit (R), in %: microelectrodes
From the text: (§1) Die antiarrhythmische Wirkung der erfindungsgemäßen Verbindungen wurde in zwei Versuchsserien untersucht, und zwar an isolierten Präparaten des rechten Vorhofs von Kaninchen und mit Hilfe des Calciumchlorid-Arrhythmie-Modells an Ratten. In den Versuchen an den isolierten Präparaten des rechten Vorhofs wurden mit Hilfe von Mikroelektroden die Dauer des AP sowie der Refraktärzeit (R) und die maximale Hemmung (e) und der Parameter (e/R) untersucht, durch den die Anfälligkeit des Myokards gegenüber der Entstehung von Arrhythmien gekennzeichnet wird. In den Versuchen an Ratten wurden diesen Calciumchlorid in einer Dosierung von 250 mg/kg injiziert. Registriert wurden das Vorliegen von Kammerflimmern und die Lebensdauer der Tiere. Sämtliche erfindungsgemäßen Verbindungen üben eine mäßige antiarrhythmische Wirkung aus. Sie steigern die Refraktärzeit des Muskels und des AP um 35 bis 145 % und verringern gleichzeitig die Anfälligkeit des Myokards, ausgedrückt durch den Parameter e/R um 10 bis 80 % (s. Tabelle 4). In bezug auf diese Wirkung waren die Salze der bicyclischen Basen wirksamer als Amyridin. Bezüglich des Vermögens, die Tiere vor Kammerflimmern und vor dem Tod nach Verabreichung von 250 mg/kg Calciumchlorid zu schützen, waren diese Verbindungen ebenfalls am stärksten wirksam. Bei Verwendung des Calciumchlorid-Arrhythmie-Modells waren viele erfindungsgemäßen Verbindungen stärker wirksam als das klassische Antiarrhythmikum Chinidin (s. M.D. Ma s kovskij, Lekarstvennye sredstva, Bd. 1, S. 401, Moskau, Medicina, 1984).

[6] = test system: Calciumchlorid-Arrhythmie-Modells; assay: Calcium chloride arrhythmia model (250 mg/kg): ventricular fibrillation, survival; format: in vivo, Ratten; conditions: rats, calcium chloride 250 mg/kg
From the text: as §1

[7] = test system: Zahl der Krämpfe; assay: Writhing test (intraperitoneal acetic acid); format: in vivo, Mäusen; conditions: male mice
From the text: Die analgetische Wirkung der erfindungsgemäßen Verbindungen wurde an männlichen Mäusen anhand des "Krampf"-Tests (Writhing-Tests) unter intraperitonealer Injizierung von Essigsäure und des Hot-plate-Tests untersucht. Im ersten Falle wurde die analgetische Wirkung der Verbindungen anhand der prozentualen Verringerung der Zahl der Krämpfe ermittelt. Beim zweiten Test wurde die Schwelle der Schmerzempfindlichkeit (Ablecken der Pfoten) bestimmt. Die stärkste analgetische Wirkung der erfindungsgemäßen Verbindungen zeigte sich beim "Krampf"-Test. Dabei übertrafen die Salze der bicyclischen Basen Amyridin, aber nicht alle erfindungsgemäßen Verbindungen waren schwächer als Morphin (s. Tabelle 4).

[8] = test system: Orientierungsaktivität; assay: Influence on orientation activity; format: in vivo, Mäusen; conditions: mice
From the text: Von Interesse ist der Einfluß der erfindungsgemäßen Verbindungen auf das ZNS und das Verhalten der Tiere. Alle Verbindungen zeigen eine Kombination von stimulierenden und sedativen Eigenschaften und bei höheren Dosen auch eine m-cholinomimetische Wirkung, wobei Tremor, Speichelfluß und Diarrhoe ausgelöst werden.

[9] = test system: Wirkung von Hexenal; assay: Influence on the effect of Hexenal; format: in vivo, Mäusen; conditions: mice
[10] = biological target: T1, Acetylcholinesterase menschlicher Erythrozyten (Homo sapiens, UniProt P22303); assay: Acetylcholinesterase inhibition, spectrophotometric; format: biochemical
T1 construct: Acetylcholin-esteraseinhi-bierung bei menschlichen Erythrozyten; from tissue; host or cells: human erythrocytes
From the text: Untersucht wurden die Wirkmechanismen der erfindungsgemäßen Verbindungen: • 1. Die Wirkung auf Acetylcholinesterase menschlicher Erythrozyten auf spektrofotometrischem Wege. • 2.

[11] = ED50 = dose blocking the effect of Skopolamin in 50 % of the animals (passive avoidance, mice)
[12] = toxic dose causing tremor in 50 % of the animals
[13] = Acetylcholinesteraseinhibierung bei menschlichen Erythrozyten IK, (Mol), human erythrocyte enzyme

T1 sequence (P22303 other isoform, or with tags, fused parts or gaps): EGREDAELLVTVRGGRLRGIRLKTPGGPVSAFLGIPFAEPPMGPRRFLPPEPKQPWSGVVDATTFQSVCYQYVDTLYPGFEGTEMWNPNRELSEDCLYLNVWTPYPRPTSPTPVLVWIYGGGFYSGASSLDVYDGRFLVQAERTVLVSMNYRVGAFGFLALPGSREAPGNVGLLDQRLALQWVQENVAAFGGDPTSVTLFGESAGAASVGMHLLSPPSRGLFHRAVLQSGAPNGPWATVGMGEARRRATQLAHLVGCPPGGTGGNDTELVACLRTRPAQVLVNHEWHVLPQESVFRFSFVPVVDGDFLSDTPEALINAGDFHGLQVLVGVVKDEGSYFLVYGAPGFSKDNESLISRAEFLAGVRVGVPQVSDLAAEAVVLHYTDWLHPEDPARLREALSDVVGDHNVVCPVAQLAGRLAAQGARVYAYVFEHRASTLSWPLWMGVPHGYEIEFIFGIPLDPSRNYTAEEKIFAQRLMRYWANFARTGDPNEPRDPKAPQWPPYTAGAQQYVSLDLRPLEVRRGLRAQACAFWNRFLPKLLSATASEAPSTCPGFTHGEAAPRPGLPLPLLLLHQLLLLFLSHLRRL

Compound	LD50 [1]	Verhältnis TD50 zu ED50 [2, 11]	TD50 (Tremor) [2, 12]	Einfluß auf das Gedächtnis: Zahl der Tiere in %, bei denen die Skopolaminwirkung aufgehoben wurde [3]	Stimulierung der Nerven-Muskelübertragung, in % der Amplitude: EPP [4]	Stimulierung der Nerven-Muskelübertragung, in % der Amplitude: minEPP [4]	Antiarrhythmische Wirkung: Verlängerung d. Refraktärzeit (R), in % [5]	Antiarrhythmische Wirkung: Verlängerung d. Lebensdauer von Ratten an Hand des CaCl2-Arrhythmie-Modells, in % [6]	Analgetische Wirkung: Abnahme d. Zahl der "Krämpfe" bei Mäusen, in % [7]	Änderung der Orientierungsaktivität, in % [8]	Änderung der Dauer der Seitenlage, in %: Hexenal 60 mg/kg [9]	Ki [10, 13]	LD50 ([1]; mouse, in vivo, ip, read-out: LD50)	selectivity ratio ([2]; in vivo, ED50 = dose blocking the effect of Skopolamin in 50 % of the animals (passive avoidance, mice), read-out: Verhältnis TD50 zu ED50)	TD50 ([2]; in vivo, toxic dose causing tremor in 50 % of the animals)	antiamnestische Wirkung ([3]; in words, compared with Amyridin)	Ki ([10]; read-out: Acetylcholinesteraseinhibierung bei menschlichen Erythrozyten IK, (Mol), human erythrocyte enzyme)	Antiarrhythmische Wirkung: Abnahme d. Parameters θ/R, in % ([5]; parameter marks susceptibility of the myocardium to arrhythmia)
Cc1nc2c(c(N)c1C)CCC2 [Verbindung 7]	20 mg/kg	9	9 mg/kg	80%	52%	95%	110%	150%	60%	-25%	+32%	0.366 µM	–	–	–	–	–	–
Cc1nc2c(c(N)c1C)CCC2 [Verbindung 4]	15 mg/kg	11	5,5 mg/kg	70%	40%	85%	90%	180%	80%	0%	0%	0.24 µM	–	–	–	–	–	–
Cc1nc2c(c(N)c1C)CCC2 [Verbindung 13]	18 mg/kg	8,5	8 mg/kg	65%	35%	72%	120%	100%	60%	-10%	+25%	0.45 µM	–	–	–	–	–	–
Cc1nc2c(c(N)c1-c1ccccc1)CCC2 [Verbindung 32]	–	–	–	50%	20%	45%	–	–	–	–	–	–	18 mg/kg	2.6	10 mg/kg	ausgenommen	50 µM	–
Cc1nc2c(c(N)c1C)CCC2 [Verbindung 14]	17 mg/kg	8,2	9 mg/kg	70%	30%	62%	100%	90%	50%	-7%	+15%	0.35 µM	–	–	–	–	–	–
Cc1nc2c(c(N)c1C)CCC2 [Verbindung 12, 4-Amino-2,3-dimethyl-6,7-dihydro-5H-1-pyrindinfumarat]	15 mg/kg	8	7 mg/kg	50%	32%	70%	110%	130%	90%	-15%	+30%	0.52 µM	–	–	–	–	–	–
Cc1nc2c(c(N)c1C)CCC2 [Verbindung 16]	21 mg/kg	6,6	10 mg/kg	75%	42%	78%	80%	70%	50%	-10%	+22%	0.58 µM	–	–	–	–	–	–
Cc1nc2c(c(N)c1C)CCC2 [Verbindung 17]	24 mg/kg	7,1	10 mg/kg	72%	43%	75%	–	–	–	–	–	0.39 µM	–	–	–	–	–	–
Cc1nc2c(c(N)c1C)CCC2 [Verbindung 18]	16 mg/kg	6	9 mg/kg	70%	45%	80%	–	–	–	–	–	0.145 µM	–	–	–	–	–	–
CCc1c(C)nc2c(c1N)CCC2 [Verbindung 22]	32 mg/kg	4	12 mg/kg	70%	25%	60%	–	–	–	–	–	–	–	–	–	–	–	–
4-Amino-2,3-dimethyl-6,7-dihydro-5H-1-pyrindinsalicylat [Verbindung 8]	17 mg/kg	6	8 mg/kg	70%	40%	75%	100%	190%	70%	0%	0%	–	–	–	–	–	–	58%
